From patent US8084644B2, “Iminopropene compound and use thereof” (Sumitomo Chemical Company, Limited, priority 2005, dated 2011)

Key:
[1] = system: Haemaphysalis longicornis; assay: Test Example 11: filter paper bag contact test on ticks; type: in vivo; details: 48 h, 0.5 mg test compound on 5 cm×10 cm filter paper, after 2 days
Description: 0.5 mg of the test compound was dissolved to […]. Onto one side of filter paper having 5 cm×10 cm, the solution was applied uniformly and then air-dried. Thereafter, the filter paper was folded in half and fixed by paper clips at the side to form bag like shape. Ten Haemaphysalis longicornis was put into the bag, and then the bag was closed with a paper clip. After 2 days, the number of dead insects was examined.

Spodoptela litura = assay: Test Example 13: cabbage test on common cutworm; type: in vivo; details: 50 ppm, fourth-instar, after four days
Description: 0.1 ml of the mixture of xylene and N,N-dimethylformamide (xylene:N,N-dimethylformamide=1:1) and 0.04 ml of the mixture of xylene and Sorpol 3005X (TOHO Chemical Industry Co. LTD) (xylene:Sorpol 3005X=1:9) were added to 16 mg of the each test compound. The mixture was diluted with water as that the active ingredient concentration came to prescribed concentration. Furthermore, spreader (Dain: Takeda Pharmaceutical Co. […] The test solution was applied to a cabbage (Brassicae oleracea) in a fifth-leaf stage at a rate 20 ml per pot. After air-drying, ten fourth-instar worm of common cutworm (Spodoptela litura) was placed onto the cabbage, and the cabbage was covered with a cup having holes. After four days, the number of dead worm was examined.

| SMILES | mortality at 0.5 mg/filter paper [1] [%] | also measured |
| --- | --- | --- |
| C(=CC(=Nc1ccccc1)OCc1ccccc1)Sc1ccccc1 [(60), Benzyl N-phenyl-3-(phenylthio)acrylimidate] | – | melting point: 77 to 81 °C |
| CN(C=CC(=Nc1ccccc1)Oc1ccccc1)c1ccccc1 [(132), Phenyl 3-(N′-methyl-N′-phenylamino)-N-phenylacrylimidate] | – | melting point: 130 to 132 °C |
| C(=CN1CCCCC1)C(=Nc1ccccc1)Oc1ccccc1 [(134), Phenyl N-phenyl-3-(piperidino)acrylimidate] | – | melting point: 127 to 128 °C |
| Cc1cc(C)nc(SC=CC(=Nc2ccccc2)Oc2ccccc2)n1 [(124), Phenyl 3-(4,6-dimethyl-2-pyrimidinylthio)-N-phenylacrylimidate] | – | melting point: 175 to 178 °C |
| O=S(=O)(C=CC(=Nc1ccccc1)Oc1ccccc1)c1ccccc1 [(99), Phenyl N-phenyl-3-(phenylsulfonyl)acrylimidate] | – | melting point: 110 to 116 °C |
| CCc1ccc(N=C(C=CSc2ccccc2)Oc2ccccc2)cc1 [(63), Phenyl N-(4-ethylphenyl)-3-(phenylthio)acrylimidate] | 100 | – |
| C(=CC(=Nc1ccccc1)SC1CCCCC1)Sc1ccccc1 [(187), Cyclohexyl N-phenyl-3-(phenylthio)thioacrylimidate] | 100 | – |
| Fc1ccc(N=C(C=COc2ccccc2)Oc2ccccc2)cc1 [(75), Phenyl N-(4-fluorophenyl)-3-(phenoxy)acrylimidate] | 100 | – |
| Cc1ccc(N=C(C=CSc2ccc(F)cc2)SCC(C)C)cc1 [(431), Isobutyl 3-(4-fluorophenylthio)-N-(4-methylphenyl)thioacrylimidate] | 100 | – |
| Cc1ccc(N=C(C=CSc2ccc(C)cc2)SC2CCCCC2)cc1 [(473), Cyclohexyl N-(4-methylphenyl)-3-(4-methylphenylthio)thioacrylimidate] | 100 | – |
| C#Cc1ccc(N=C(C=COc2ccccc2)Oc2ccccc2)cc1 [(156), Phenyl N-(4-ethynylphenyl)-3-(phenoxy)acrylimidate] | 100 | – |
| CCCSC(C=CSc1ccccc1)=Nc1ccc(C)cc1 [(280), Propyl N-(4-methylphenyl)-3-(phenylthio)thioacrylimidate] | 100 | – |
| Clc1ccc(N=C(C=COc2ccccc2)Oc2ccccc2)cc1 [(43), Phenyl N-(4-chlorophenyl)-3-(phenoxy)acrylimidate] | 100 | – |
| Cc1cccc(N=C(C=COc2ccccc2)Oc2ccccc2)c1 [(69), Phenyl N-(3-methylphenyl)-3-(phenoxy)acrylimidate] | 100 | – |
| COc1cccc(SC=CC(=Nc2ccc(C)cc2)SCC(C)C)c1 [(446), Isobutyl 3-(3-methoxyphenylthio)-N-(4-methylphenyl)thioacrylimidate] | 100 | – |
| Clc1cccc(N=C(C=COc2ccccc2)Oc2ccccc2)c1 [(45), Phenyl N-(3-chlorophenyl)-3-(phenoxy)acrylimidate] | 100 | – |
| Ic1ccc(N=C(C=COc2ccccc2)Oc2ccccc2)cc1 [(80), Phenyl N-(4-iodophenyl)-3-(phenoxy)acrylimidate] | 100 | – |
| CC(C)(C)SC=CC(=Nc1ccccc1)Oc1ccccc1 [(140), Phenyl 3-(1,1-dimethylethylthio)-N-phenylacrylimidate] | – | melting point: 134 to 136 °C |
| Brc1ccc(SC=CC(=Nc2ccccc2)Oc2ccccc2)cc1 [(102), Phenyl 3-(4-bromophenylthio)-N-phenylacrylimidate] | 100 | – |
| C(=CC(=Nc1ccccc1)Sc1ccccc1)Sc1ccccc1 [(1), Phenyl N-phenyl-3-(phenylthio)thioacrylimidate] | 100 | – |
| Cc1ccc(SC=CC(=Nc2ccccc2)Sc2ccccc2)cc1 [(130), Phenyl 3-(4-methylphenylthio)-N-(phenyl)thioacrylimidate] | 100 | index number (mortality) (Spodoptela litura): 3 (mortality 80 to 99%) |
| Fc1ccccc1N=C(C=CSc1ccccc1)Oc1ccccc1 [(48), Phenyl N-(2-fluorophenyl)-3-(phenylthio)acrylimidate] | 100 | – |
| COc1cccc(SC=CC(=Nc2ccccc2)Oc2ccccc2)c1 [(107), Phenyl 3-(3-methoxyphenylthio)-N-phenylacrylimidate] | 100 | – |
| Cc1ccc(N=C(C=CSc2ccccc2)Sc2cccs2)cc1 [(480), 2-Thienyl N-(4-methylphenyl)-3-(phenylthio)thioacrylimidate] | 100 | – |
| Cc1ccc(N=C(C=CSc2ccccc2)Oc2ccccc2)cc1 [(54), Phenyl N-(4-methylphenyl)-3-(phenylthio)acrylimidate] | 100 | – |
| Clc1ccc(N=C(C=COc2ccccc2)Oc2ccccc2)cc1Cl [(59), Phenyl N-(3,4-dichlorophenyl)-3-(phenoxy)acrylimidate] | 100 | – |
| Fc1ccccc1SC=CC(=Nc1ccccc1)Oc1ccccc1 [(104), Phenyl 3-(2-fluorophenylthio)-N-phenylacrylimidate] | 100 | – |
